Source: PubChem BioAssay (NCI)
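96-well plates; 48 h exposure; 5 concentrations. Endpoints by linear interpolation between flanking doses. Not reached: highest tested concentration assigned. At the TGI there is no net growth.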

Experiments:
Assay in all cases: growth of human tumour cells (NCI), 48 h
[1] = system: SF-295 CNS
[2] = system: HL-60(TB) leukemia
[3] = system: EKVX NSCLC
[4] = system: HCT-116 colon
[5] = system: HT29 colon
[6] = system: RXF 393 renal
[7] = system: TK-10 renal
[8] = system: NCI-H460 lung
[9] = system: K-562 leukemia
[10] = system: DU-145 prostate
[11] = system: SK-MEL-2 melanoma
[12] = system: SF-268 CNS
[13] = system: NCI-H23 lung
[14] = system: SK-OV-3 ovarian
[15] = system: NCI-H226 lung
[16] = system: HCT-15 colon
[17] = system: IGROV1 ovarian
[18] = system: HCC-2998 colon
[19] = system: RPMI-8226 leukemia
[20] = system: SK-MEL-28 melanoma
[21] = system: SNB-75 CNS
[22] = system: OVCAR-8 ovarian
[23] = system: BT-549 breast
[24] = system: 786-0 renal
[25] = system: T-47D breast
[26] = system: U251 CNS
[27] = system: SR leukemia
[28] = system: M14 melanoma
[29] = system: CAKI-1 renal
[30] = system: COLO 205 colon
[31] = system: OVCAR-5 ovarian
[32] = system: NCI-H522 lung
[33] = system: OVCAR-4 ovarian
[34] = system: A549 NSCLC
[35] = system: HOP-62 NSCLC
[36] = system: CCRF-CEM leukemia
[37] = system: MDA-MB-435
[38] = system: OVCAR-3 ovarian
[39] = system: PC-3 prostate
[40] = system: UACC-62 melanoma
[41] = system: HS 578T breast
[42] = system: UO-31 renal
[43] = system: SF-539 CNS
[44] = system: LOX IMVI melanoma
[45] = system: SK-MEL-5 melanoma
[46] = system: NCI/ADR-RES ovarian
[47] = system: SN12C renal
[48] = system: KM12 colon
[49] = system: UACC-257 melanoma
[50] = system: HOP-92 NSCLC
[51] = system: ACHN renal
[52] = system: MOLT-4 leukemia
[53] = system: MCF7 breast
[54] = system: MDA-N
[55] = system: MALME-3M melanoma
[56] = system: SNB-19 CNS
[57] = system: A498 renal
[58] = system: MDA-MB-231 breast
[59] = system: SW-620 colon

Cc1cc(N(CCC#N)CCC#N)ccc1/C=N/NC(=O)c1ccccc1
TGI [1]: > 100 µM
TGI [2]: > 27.2 µM
TGI [3]: > 100 µM
TGI [4]: > 92.6 µM
TGI [5]: 14.2 µM
TGI [6]: > 100 µM
TGI [7]: > 100 µM
TGI [8]: > 100 µM
TGI [9]: > 100 µM
TGI [10]: > 86.2 µM
TGI [11]: > 100 µM
TGI [12]: > 100 µM
TGI [13]: > 100 µM
TGI [14]: > 100 µM
TGI [15]: 84.1 µM
TGI [16]: > 100 µM
TGI [17]: > 100 µM
TGI [18]: 55.1 µM
TGI [19]: > 100 µM
TGI [20]: > 100 µM
TGI [21]: > 100 µM
TGI [22]: > 82.8 µM
TGI [23]: > 100 µM
TGI [24]: > 100 µM
TGI [25]: > 100 µM
TGI [26]: > 100 µM
TGI [27]: > 43.2 µM
TGI [28]: > 100 µM
TGI [29]: > 100 µM
TGI [30]: > 100 µM
TGI [31]: > 100 µM
TGI [32]: 39.3 µM
TGI [33]: > 100 µM
TGI [34]: > 100 µM
TGI [35]: > 100 µM
TGI [36]: 98.1 µM
TGI [37]: > 38.9 µM
TGI [38]: > 84 µM
TGI [39]: > 100 µM
TGI [40]: > 100 µM
TGI [41]: > 56.5 µM
TGI [42]: > 100 µM
TGI [43]: 47.5 µM
TGI [44]: > 100 µM
TGI [45]: > 100 µM
TGI [46]: 36.1 µM
TGI [47]: > 100 µM
TGI [48]: > 100 µM
TGI [49]: > 100 µM
TGI [50]: > 100 µM
TGI [51]: > 100 µM
TGI [52]: > 100 µM
TGI [53]: > 100 µM
TGI [54]: 10.6 µM
TGI [55]: > 100 µM
TGI [56]: > 100 µM
TGI [57]: 65.4 µM
TGI [58]: > 81.3 µM
TGI [59]: > 100 µM

CCCCC(=O)OC[n+]1ccc(-c2c(COC(=O)NC(C)C)c(COC(=O)NC(C)C)c3n2CCC3)cc1
TGI [1]: > 100 µM
TGI [2]: > 79.8 µM
TGI [3]: > 100 µM
TGI [4]: > 100 µM
TGI [5]: > 100 µM
TGI [6]: > 100 µM
TGI [7]: > 100 µM
TGI [8]: > 100 µM
TGI [9]: > 100 µM
TGI [10]: > 100 µM
TGI [11]: > 100 µM
TGI [12]: > 100 µM
TGI [13]: > 100 µM
TGI [14]: > 100 µM
TGI [15]: > 100 µM
TGI [16]: > 100 µM
TGI [17]: > 100 µM
TGI [18]: > 100 µM
TGI [19]: > 100 µM
TGI [20]: > 100 µM
TGI [21]: > 100 µM
TGI [22]: > 100 µM
TGI [23]: > 100 µM
TGI [24]: > 100 µM
TGI [25]: > 100 µM
TGI [26]: > 100 µM
TGI [27]: > 84.4 µM
TGI [28]: > 100 µM
TGI [29]: > 100 µM
TGI [30]: > 100 µM
TGI [31]: > 100 µM
TGI [32]: > 100 µM
TGI [33]: > 100 µM
TGI [34]: > 100 µM
TGI [35]: > 100 µM
TGI [36]: > 100 µM
TGI [37]: > 100 µM
TGI [38]: > 100 µM
TGI [39]: > 100 µM
TGI [40]: > 100 µM
TGI [41]: > 100 µM
TGI [42]: > 100 µM
TGI [43]: > 100 µM
TGI [44]: > 100 µM
TGI [45]: > 100 µM
TGI [46]: > 100 µM
TGI [47]: > 100 µM
TGI [48]: > 100 µM
TGI [49]: > 100 µM
TGI [50]: > 100 µM
TGI [51]: > 100 µM
TGI [52]: > 80.7 µM
TGI [53]: > 100 µM
TGI [54]: > 100 µM
TGI [55]: > 100 µM
TGI [56]: > 100 µM
TGI [57]: 76.5 µM
TGI [58]: > 100 µM
TGI [59]: > 100 µM

O=C(Nc1nnc(-c2ccc(Cl)cc2)o1)C(SC(=S)N1CCCCC1)c1ccccc1 (stereo unspecified)
TGI [1]: > 100 µM
TGI [2]: 26.2 µM
TGI [3]: 54.1 µM
TGI [4]: 34.8 µM
TGI [5]: > 75.3 µM
TGI [6]: > 75.9 µM
TGI [7]: > 100 µM
TGI [8]: 31.6 µM
TGI [9]: > 88 µM
TGI [10]: > 100 µM
TGI [11]: 52.6 µM
TGI [12]: 61.1 µM
TGI [13]: > 76.8 µM
TGI [14]: > 100 µM
TGI [15]: 85.2 µM
TGI [16]: > 81.5 µM
TGI [17]: > 65.6 µM
TGI [18]: 76.8 µM
TGI [19]: 38.2 µM
TGI [20]: 56.3 µM
TGI [21]: > 100 µM
TGI [22]: > 100 µM
TGI [23]: > 86.7 µM
TGI [24]: > 78.2 µM
TGI [25]: > 100 µM
TGI [26]: > 100 µM
TGI [27]: 16.2 µM
TGI [28]: 32.1 µM
TGI [29]: > 100 µM
TGI [30]: > 100 µM
TGI [31]: 64.2 µM
TGI [32]: 37.7 µM
TGI [33]: > 100 µM
TGI [34]: 56.8 µM
TGI [35]: > 100 µM
TGI [36]: > 43.5 µM
TGI [37]: 97.6 µM
TGI [38]: > 72.6 µM
TGI [39]: > 100 µM
TGI [40]: 31.8 µM
TGI [41]: 85 µM
TGI [42]: 27.8 µM
TGI [43]: > 84.2 µM
TGI [44]: > 50.6 µM
TGI [45]: 32.5 µM
TGI [46]: > 68.2 µM
TGI [47]: 41.6 µM
TGI [48]: > 100 µM
TGI [49]: > 70.4 µM
TGI [50]: > 63.3 µM
TGI [51]: 66.5 µM
TGI [52]: 12.3 µM
TGI [53]: 49.9 µM
TGI [54]: 37.2 µM
TGI [55]: 36.6 µM
TGI [56]: > 100 µM
TGI [57]: 44.4 µM
TGI [58]: 69.8 µM
TGI [59]: > 100 µM

C=CCCCCNC(=O)C[C@@H]1C2=C(CC[C@H]1O[Si](C)(C)C(C)(C)C)N1C(=O)CCC/C=C\C1C2 (stereo partly specified)
TGI [1]: 30.2 µM
TGI [2]: 13.6 µM
TGI [3]: 31.1 µM
TGI [4]: 26 µM
TGI [5]: 24.7 µM
TGI [6]: 23.7 µM
TGI [7]: 29.6 µM
TGI [8]: 27.9 µM
TGI [9]: 20.9 µM
TGI [10]: 30.1 µM
TGI [11]: 26.1 µM
TGI [12]: 29.9 µM
TGI [13]: 27.7 µM
TGI [14]: 31.1 µM
TGI [15]: 29.9 µM
TGI [16]: 27 µM
TGI [17]: 29.7 µM
TGI [18]: 22.1 µM
TGI [19]: 22.1 µM
TGI [20]: 29.7 µM
TGI [21]: 30.7 µM
TGI [22]: 28.2 µM
TGI [23]: 30.1 µM
TGI [24]: 28.7 µM
TGI [25]: 29.8 µM
TGI [26]: 26.3 µM
TGI [27]: 23.4 µM
TGI [28]: 27.4 µM
TGI [29]: 24.8 µM
TGI [30]: 26.7 µM
TGI [31]: 29.5 µM
TGI [32]: 24.7 µM
TGI [33]: 25 µM
TGI [34]: 25.8 µM
TGI [35]: 35.5 µM
TGI [36]: 25.7 µM
TGI [37]: 28.4 µM
TGI [38]: 28 µM
TGI [39]: 24.4 µM
TGI [40]: 25.5 µM
TGI [41]: 32.9 µM
TGI [42]: 27.2 µM
TGI [43]: 31.3 µM
TGI [44]: 31.4 µM
TGI [45]: 27.1 µM
TGI [46]: 24.7 µM
TGI [47]: 28.8 µM
TGI [48]: 28.2 µM
TGI [49]: 25.8 µM
TGI [50]: 23.1 µM
TGI [51]: 28.7 µM
TGI [52]: 20 µM
TGI [53]: 24.7 µM
TGI [54]: 29.8 µM
TGI [55]: 28.2 µM
TGI [56]: 27.4 µM
TGI [57]: 28.4 µM
TGI [58]: 26.1 µM
TGI [59]: 27.4 µM
